Where a SMILES comes first, the peptide text is derived from it. [ ]: non-standard residue; d: D form. The star is where a group is joined. NHCH2CH2OH = OCCN*; For = O=C*
Assays:
[1] = H+/Na+ transport assay of bead-derived peptides (one-point); format: biochemical; parameters: key: relative activity; mean of two control wells = 1.00; conditions: bead-derived peptide solution, EYPC/EYPG LUVs;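 note: relative to parent gramicidin A activity set to 1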
Procedure, shortened: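 Values are normalized fluorescence, with Triton X-100 defining 100% and untreated LUVs 0%, and the two control wells averaging 1.00. Vesicles carried 1.0 mM pyranine and included egg yolk phosphatidylglycerol. Peptides were incubated with them 30 min at room temperature.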

[2] = system: P388 mouse leukemia cells; conditions: 92 h
Procedure, shortened: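 P388 cells at 1 × 10^4 cells/mL (final) were exposed to library peptides (stocks diluted 250-fold in RPMI1640/10% FBS) for 92 h at 37 °C, 5% CO2. Viable cells were counted by WST-1/1-methoxy PMS (4 h), absorbance 415 nm, and expressed as cell viability (%).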

[3] = system: Streptococcus pyogenes SSI-9; experiment: Antibacterial activity assay of bead-derived peptides (three concentrations); format: cell-based; parameters: key: +++: inhibition by the 640-fold diluted peptide solution; ++: inhibition by the 160-fold diluted solution; +: inhibition by the 40-fold diluted solution; -: no inhibition; conditions: S. pyogenes, bead-derived peptide solution, three concentrations
Procedure, shortened: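 Library peptide stock applied undiluted, 4-fold and 16-fold diluted in DMSO to S. pyogenes SSI-9 (2 × 10^5 CFU) in cation-adjusted Mueller Hinton broth with 5% laked horse blood. After 18 h at 37 °C, growth judged by visible cell precipitation.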

| SMILES | H+/Na+ transport activity normalized against the value of 1 (1.00) [1] | cell viability/% [2] [%] | antibacterial activity [3] |
| --- | --- | --- | --- |
| CNC(=O)C[C@@H](NC(=O)[C@H](Cc1c[nH]c2ccccc12)NC(=O)[C@H](NC(=O)[C@H](Cc1c[nH]c2ccccc12)NC(=O)[C@@H](CC(C)C)NC(=O)[C@H](Cc1c[nH]c2ccccc12)NC(=O)[C@@H](CC(C)C)NC(=O)[C@@H](NC(=O)[C@@H](CC(C)C)NC(=O)[C@H](C)NC(=O)[C@@H](CC(C)C)NC(=O)[C@H](C)NC(=O)CNC(=O)[C@@H](NC=O)C(C)C)C(C)C)C(C)C)C(=O)N[C@@H](Cc1c[nH]c2ccccc12)C(=O)NCCO [compound 10008] (For-VGA[dL]A[dL]V[dL]W[dL]W[dV]W[dD](NHMe)W-NHCH2CH2OH) | 1.15 | 100.0 | - |
| CC(C)C[C@@H](NC(=O)[C@H](Cc1c[nH]c2ccccc12)NC(=O)[C@H](NC(=O)[C@H](Cc1c[nH]c2ccccc12)NC(=O)[C@H](NC(=O)[C@H](Cc1c[nH]c2ccccc12)NC(=O)[C@H](NC(=O)[C@@H](NC(=O)[C@H](NC(=O)[C@H](C)NC(=O)[C@H](NC(=O)[C@H](C)NC(=O)CNC(=O)[C@@H](NC=O)C(C)C)C(C)C)C(C)C)C(C)C)C(C)C)C(C)C)C(C)C)C(=O)N[C@@H](Cc1c[nH]c2ccccc12)C(=O)NCCO [compound 1004] (For-VGA[dV]A[dV]V[dV]W[dV]W[dV]W[dL]W-NHCH2CH2OH) | 1.04 | 60.4 | + |
| CC(C)C[C@@H](NC(=O)[C@H](Cc1c[nH]c2ccccc12)NC(=O)[C@H](NC(=O)[C@H](Cc1c[nH]c2ccccc12)NC(=O)[C@H](NC(=O)[C@@H](NC(=O)[C@H](NC(=O)[C@H](C)NC(=O)[C@H](NC(=O)[C@H](C)NC(=O)CNC(=O)[C@@H](NC=O)C(C)C)C(C)C)C(C)C)C(C)C)C(C)C)C(C)C)C(=O)N[C@@H](Cc1c[nH]c2ccccc12)C(=O)N[C@@H](C(=O)N[C@@H](Cc1c[nH]c2ccccc12)C(=O)NCCO)C(C)C [compound 676] (For-VGA[dV]A[dV]V[dV]W[dV]W[dL]W[dV]W-NHCH2CH2OH) | 1.02 | 100.0 | ++ |
| CC(C)C[C@@H](NC(=O)[C@H](Cc1c[nH]c2ccccc12)NC(=O)[C@@H](CC(C)C)NC(=O)[C@H](Cc1c[nH]c2ccccc12)NC(=O)[C@H](NC(=O)[C@H](Cc1c[nH]c2ccccc12)NC(=O)[C@H](NC(=O)[C@@H](NC(=O)[C@H](NC(=O)[C@H](C)NC(=O)[C@H](NC(=O)[C@H](C)NC(=O)CNC(=O)[C@@H](NC=O)C(C)C)C(C)C)C(C)C)C(C)C)C(C)C)C(C)C)C(=O)N[C@@H](Cc1c[nH]c2ccccc12)C(=O)NCCO [compound 10649] (For-VGA[dV]A[dV]V[dV]W[dV]W[dL]W[dL]W-NHCH2CH2OH) | 1.19 | 100.0 | ++ |
| CC(C)C[C@@H](NC(=O)[C@H](C)NC(=O)[C@H](NC(=O)[C@H](C)NC(=O)CNC(=O)[C@@H](NC=O)C(C)C)C(C)C)C(=O)N[C@H](C(=O)N[C@H](CC(C)C)C(=O)N[C@@H](Cc1c[nH]c2ccccc12)C(=O)N[C@@H](C(=O)N[C@@H](Cc1c[nH]c2ccccc12)C(=O)N[C@@H](C(=O)N[C@@H](Cc1c[nH]c2ccccc12)C(=O)N[C@@H](C(=O)N[C@@H](Cc1c[nH]c2ccccc12)C(=O)NCCO)C(C)C)C(C)C)C(C)C)C(C)C [compound 2212] (For-VGA[dV]A[dL]V[dL]W[dV]W[dV]W[dV]W-NHCH2CH2OH) | 1.18 | 11.5 | + |
| CC(C)C[C@@H](NC(=O)[C@H](C)NC(=O)CNC(=O)[C@@H](NC=O)C(C)C)C(=O)N[C@@H](C)C(=O)N[C@@H](C(=O)N[C@H](C(=O)N[C@@H](C(=O)N[C@@H](Cc1c[nH]c2ccccc12)C(=O)N[C@@H](C(=O)N[C@@H](Cc1c[nH]c2ccccc12)C(=O)N[C@@H](C(=O)N[C@@H](Cc1c[nH]c2ccccc12)C(=O)N[C@@H](C(=O)N[C@@H](Cc1c[nH]c2ccccc12)C(=O)NCCO)C(C)C)C(C)C)C(C)C)C(C)C)C(C)C)C(C)C [compound 12092] (For-VGA[dL]A[dV]V[dV]W[dV]W[dV]W[dV]W-NHCH2CH2OH) | 1.14 | 100.0 | + |
| CC(C)C[C@@H](NC(=O)[C@H](C)NC(=O)[C@H](NC(=O)[C@H](C)NC(=O)CNC(=O)[C@@H](NC=O)C(C)C)[C@H](C)O)C(=O)N[C@H](C(=O)N[C@H](CC(C)C)C(=O)N[C@@H](Cc1c[nH]c2ccccc12)C(=O)N[C@@H](C(=O)N[C@@H](Cc1c[nH]c2ccccc12)C(=O)N[C@H](CC(C)C)C(=O)N[C@@H](Cc1c[nH]c2ccccc12)C(=O)N[C@H](CC(C)C)C(=O)N[C@@H](Cc1c[nH]c2ccccc12)C(=O)NCCO)C(C)C)C(C)C [compound 11561] (For-VGA[dT]A[dL]V[dL]W[dV]W[dL]W[dL]W-NHCH2CH2OH) | 1.01 | 100.0 | - |
| CC(C)C[C@@H](NC(=O)[C@H](C)NC(=O)CNC(=O)[C@@H](NC=O)C(C)C)C(=O)N[C@@H](C)C(=O)N[C@H](CC(C)C)C(=O)N[C@H](C(=O)N[C@H](CC(C)C)C(=O)N[C@@H](Cc1c[nH]c2ccccc12)C(=O)N[C@H](CC(C)C)C(=O)N[C@@H](Cc1c[nH]c2ccccc12)C(=O)N[C@H](CC(C)C)C(=O)N[C@@H](Cc1c[nH]c2ccccc12)C(=O)N[C@@H](C(=O)N[C@@H](Cc1c[nH]c2ccccc12)C(=O)NCCO)C(C)C)C(C)C [compound 6639] (For-VGA[dL]A[dL]V[dL]W[dL]W[dL]W[dV]W-NHCH2CH2OH) | 1.01 | 0.0 | + |
| CC(C)C[C@@H](NC(=O)[C@H](C)NC(=O)[C@H](NC(=O)[C@H](C)NC(=O)CNC(=O)[C@@H](NC=O)C(C)C)[C@H](C)O)C(=O)N[C@H](C(=O)N[C@H](CC(C)C)C(=O)N[C@@H](Cc1c[nH]c2ccccc12)C(=O)N[C@@H](C(=O)N[C@@H](Cc1c[nH]c2ccccc12)C(=O)N[C@H](CC(C)C)C(=O)N[C@@H](Cc1c[nH]c2ccccc12)C(=O)N[C@@H](C(=O)N[C@@H](Cc1c[nH]c2ccccc12)C(=O)NCCO)C(C)C)[C@H](C)O)C(C)C [compound 7135] (For-VGA[dT]A[dL]V[dL]W[dT]W[dL]W[dV]W-NHCH2CH2OH) | 1.09 | 100.0 | - |
| CNC(=O)C[C@@H](NC(=O)[C@@H](NC(=O)[C@@H](CC(C)C)NC(=O)[C@H](C)NC(=O)[C@@H](CC(C)C)NC(=O)[C@H](C)NC(=O)CNC(=O)[C@@H](NC=O)C(C)C)C(C)C)C(=O)N[C@@H](Cc1c[nH]c2ccccc12)C(=O)N[C@@H](C(=O)N[C@@H](Cc1c[nH]c2ccccc12)C(=O)N[C@@H](C(=O)N[C@@H](Cc1c[nH]c2ccccc12)C(=O)N[C@H](CC(C)C)C(=O)N[C@@H](Cc1c[nH]c2ccccc12)C(=O)NCCO)C(C)C)C(C)C [compound 11228] (For-VGA[dL]A[dL]V[dD](NHMe)W[dV]W[dV]W[dL]W-NHCH2CH2OH) | 1.27 | 76.4 | - |
| CC(C)C[C@@H](NC(=O)[C@H](C)NC(=O)CNC(=O)[C@@H](NC=O)C(C)C)C(=O)N[C@@H](C)C(=O)N[C@H](CC(C)C)C(=O)N[C@H](C(=O)N[C@H](CC(C)C)C(=O)N[C@@H](Cc1c[nH]c2ccccc12)C(=O)N[C@@H](C(=O)N[C@@H](Cc1c[nH]c2ccccc12)C(=O)N[C@@H](C(=O)N[C@@H](Cc1c[nH]c2ccccc12)C(=O)N[C@@H](C(=O)N[C@@H](Cc1c[nH]c2ccccc12)C(=O)NCCO)C(C)C)C(C)C)[C@H](C)O)C(C)C [compound 5679] (For-VGA[dL]A[dL]V[dL]W[dT]W[dV]W[dV]W-NHCH2CH2OH) | 1.06 | 90.5 | - |
| CNC(=O)C[C@@H](NC(=O)[C@H](Cc1c[nH]c2ccccc12)NC(=O)[C@@H](CC(C)C)NC(=O)[C@H](Cc1c[nH]c2ccccc12)NC(=O)[C@H](NC(=O)[C@H](Cc1c[nH]c2ccccc12)NC(=O)[C@@H](CC(C)C)NC(=O)[C@@H](NC(=O)[C@H](NC(=O)[C@H](C)NC(=O)[C@@H](CC(C)C)NC(=O)[C@H](C)NC(=O)CNC(=O)[C@@H](NC=O)C(C)C)C(C)C)C(C)C)C(C)C)C(=O)N[C@@H](Cc1c[nH]c2ccccc12)C(=O)NCCO [compound 10043] (For-VGA[dL]A[dV]V[dL]W[dV]W[dL]W[dD](NHMe)W-NHCH2CH2OH) | 1.09 | 56.6 | - |
| CC(C)C[C@@H](NC(=O)[C@H](C)NC(=O)CNC(=O)[C@@H](NC=O)C(C)C)C(=O)N[C@@H](C)C(=O)N[C@@H](C(=O)N[C@H](C(=O)N[C@@H](C(=O)N[C@@H](Cc1c[nH]c2ccccc12)C(=O)N[C@@H](C(=O)N[C@@H](Cc1c[nH]c2ccccc12)C(=O)N[C@@H](C(=O)N[C@@H](Cc1c[nH]c2ccccc12)C(=O)N[C@@H](C(=O)N[C@@H](Cc1c[nH]c2ccccc12)C(=O)NCCO)C(C)C)C(C)C)C(C)C)C(C)C)C(C)C)C(C)C [compound 9610] (For-VGA[dL]A[dV]V[dV]W[dV]W[dV]W[dV]W-NHCH2CH2OH) | 1.14 | 100.0 | + |

Reference: publication PMC7531004, “Discovery of gramicidin A analogues with altered activities by multidimensional screening of a one-bead-one-compound library” (Nature Communications, 2020)
